# Test results published in ChEMBL document CHEMBL3046521, “Synthesis and antitumor activity of (4-hydroxyphenyl)[5-substituted alkyl/aryl)-2-thioxo-1,3,4-thiadiazol-3-yl]methanone and [(3,4-disubstituted)-1,3-thiazol-2ylidene]-4-hydroxybenzohydrazide” (2011).
# Assays:
# Type in all cases: functional
# CAKI-1 [1] = assay: Anticancer activity in Homo sapiens (human) Caki1 cells assessed as cell growth at 10^-5 M after 48 hr by SRB assay; settings: CAKI-1, 48 h, read-out: Activity
# LOX IMVI = assay: Anticancer activity in Homo sapiens (human) LOXIMVI cells assessed as cell growth at 10^-5 M after 48 hr by SRB assay; settings: read-out: Activity
# KM12 = assay: Cytotoxicity against Homo sapiens (human) KM12 cells after 48 hr by sulforhodamine B assay; settings: KM12, 48 h
# HCC 2998 [2] = assay: Cytotoxicity against Homo sapiens (human) HCC2998 cells after 48 hr by sulforhodamine B assay; settings: HCC 2998, 48 h
# NCI-H522 = assay: Cytotoxicity against Homo sapiens (human) NCI-H522 cells after 48 hr by sulforhodamine B assay; settings: NCI-H522, 48 h
# HOP-92 = assay: Cytotoxicity against Homo sapiens (human) HOP92 cells after 48 hr by sulforhodamine B assay; settings: HOP-92, 48 h; for TGI: read-out: pTGI (converted)
# HL-60(TB) = assay: Cytotoxicity against Homo sapiens (human) HL-60(TB) cells after 48 hr by sulforhodamine B assay; settings: HL-60, 48 h; for CC50: read-out: pLC50 (the source's name) (converted); for TGI: read-out: pTGI (converted)
# CCRF-CEM = assay: Cytotoxicity against Homo sapiens (human) CCRF-CEM cells after 48 hr by sulforhodamine B assay
# MDA-MB-468 = assay: Cytotoxicity against Homo sapiens (human) MDA-MB-468 cells after 48 hr by sulforhodamine B assay; settings: MDA-MB-468, 48 h
# PC-3 = assay: Cytotoxicity against Homo sapiens (human) PC3 cells after 48 hr by sulforhodamine B assay; settings: PC-3, 48 h; for TGI: read-out: pTGI (converted)
# CAKI-1 [3] = assay: Cytotoxicity against Homo sapiens (human) Caki1 cells after 48 hr by sulforhodamine B assay; settings: CAKI-1, 48 h; for TGI: read-out: pTGI (converted)
# [4] = Cytotoxicity against Homo sapiens (human) NCI-ADR-RES cells after 48 hr by sulforhodamine B assay
# MDA-MB-435 = assay: Cytotoxicity against Homo sapiens (human) MDA-MB-435 cells after 48 hr by sulforhodamine B assay; settings: MDA-MB-435, 48 h
# SF-295 = assay: Cytotoxicity against Homo sapiens (human) SF295 cells after 48 hr by sulforhodamine B assay; settings: SF-295, 48 h; for TGI: read-out: pTGI (converted)
# HCC 2998 [5] = assay: Anticancer activity in Homo sapiens (human) HCC2998 cells assessed as cell growth at 10^-5 M after 48 hr by SRB assay; settings: HCC 2998, 48 h, read-out: Activity
# HCT-116 = assay: Cytotoxicity against Homo sapiens (human) HCT116 cells after 48 hr by sulforhodamine B assay; settings: HCT-116, 48 h
# [6] = Anticancer activity in Homo sapiens (human) NCI-ADR-RES cells assessed as cell growth at 10^-5 M after 48 hr by SRB assay; settings: read-out: Activity
# MCF7 = assay: Cytotoxicity against Homo sapiens (human) MCF7 cells after 48 hr by sulforhodamine B assay; settings: MCF7, 48 h
# OVCAR-3 = assay: Cytotoxicity against Homo sapiens (human) OVCAR3 cells after 48 hr by sulforhodamine B assay; settings: OVCAR-3, 48 h
# Malme-3M = assay: Cytotoxicity against Homo sapiens (human) MALME-3M cells after 48 hr by sulforhodamine B assay
smiles,measurement,setting,value
COc1ccc(-c2nn(C(=O)c3ccc(O)cc3)c(=S)s2)cc1,growth at 10 µM,CAKI-1 [1],68%
O=C(c1ccc(O)cc1)n1nc(-c2ccc(O)cc2)sc1=S,growth at 10 µM,LOX IMVI,-0.61%
O=C(N/N=c1\scc(-c2ccc(Cl)cc2)n1-c1ccc(Cl)cc1Cl)c1ccc(O)cc1,GI50,KM12,2.63 µM
same,LC50,KM12,87.1 µM
same,TGI,KM12; read-out: pTGI (converted),8.51 µM
same,GI50,HCC 2998 [2],1.95 µM
same,LC50,HCC 2998 [2],53.7 µM
same,TGI,HCC 2998 [2]; read-out: pTGI (converted),5.25 µM
same,GI50,NCI-H522,2.57 µM
same,LC50,NCI-H522,> 100 µM
same,TGI,NCI-H522; read-out: pTGI (converted),20 µM
same,GI50,HOP-92,2.95 µM
same,LC50,HOP-92,49 µM
same,TGI,HOP-92,7.59 µM
same,GI50,HL-60(TB),0.302 µM
same,CC50,HL-60(TB),> 100 µM
same,TGI,HL-60(TB),38 µM
same,GI50,CCRF-CEM,0.977 µM
same,LC50,CCRF-CEM,> 100 µM
same,TGI,CCRF-CEM; read-out: pTGI,> 100 µM
same,GI50,MDA-MB-468,3.89 µM
same,LC50,MDA-MB-468,> 100 µM
same,TGI,MDA-MB-468; read-out: pTGI (converted),> 100 µM
same,GI50,PC-3,3.39 µM
same,LC50,PC-3,> 100 µM
same,TGI,PC-3,> 100 µM
same,GI50,CAKI-1 [3],3.31 µM
same,LC50,CAKI-1 [3],> 100 µM
same,TGI,CAKI-1 [3],52.5 µM
same,GI50,[4],2.95 µM
same,LC50,[4],> 100 µM
same,TGI,[4]; read-out: pTGI (converted),8.32 µM
same,GI50,MDA-MB-435,2.88 µM
same,LC50,MDA-MB-435,> 100 µM
same,TGI,MDA-MB-435; read-out: pTGI (converted),22.9 µM
same,GI50,SF-295,2.82 µM
same,LC50,SF-295,> 100 µM
same,TGI,SF-295,9.77 µM
same,growth at 10 µM,HCC 2998 [5],-1.56%
COc1ccc(-n2c(-c3ccc(Cl)cc3)cs/c2=N\NC(=O)c2ccc(O)cc2)c(OC)c1,GI50,HCT-116,27.5 µM
same,LC50,HCT-116,> 100 µM
same,TGI,HCT-116; read-out: pTGI (converted),> 100 µM
same,GI50,HOP-92,14.5 µM
same,LC50,HOP-92,> 100 µM
same,TGI,HOP-92,64.6 µM
same,GI50,HL-60(TB),17.8 µM
same,CC50,HL-60(TB),> 100 µM
same,TGI,HL-60(TB),81.3 µM
same,growth at 10 µM,[6],-1.18%
same,GI50,MCF7,25.1 µM
same,LC50,MCF7,> 100 µM
same,TGI,MCF7; read-out: pTGI (converted),> 100 µM
same,GI50,PC-3,18.2 µM
same,LC50,PC-3,> 100 µM
same,TGI,PC-3,> 100 µM
same,GI50,CAKI-1 [3],22.9 µM
same,LC50,CAKI-1 [3],> 100 µM
same,TGI,CAKI-1 [3],> 100 µM
same,GI50,OVCAR-3,26.9 µM
same,LC50,OVCAR-3,> 100 µM
same,TGI,OVCAR-3; read-out: pTGI (converted),83.2 µM
same,GI50,Malme-3M,25.1 µM
same,LC50,Malme-3M,> 100 µM
same,TGI,Malme-3M; read-out: pTGI (converted),91.2 µM
same,GI50,SF-295,27.5 µM
same,LC50,SF-295,> 100 µM
same,TGI,SF-295,> 100 µM
